Assay results from patent publication US8410045B2, “Camptothecin-peptide conjugates and pharmaceutical compositions containing the same” (Drais Pharmaceuticals, Inc., priority 2006, dated 2013).
Like-named read-outs stand apart in the source and are kept apart here. Where a SMILES comes first, the peptide text is derived from it. Where no end group is shown, it is not given here. The star is where a group is joined. X4 = CC[C@@]1(O)C(=O)OCc2c1cc1n(c2=O)Cc2cc3cc(OC(=O)[C@H]4CC[C@H](CNC(=O)C5CCC(CN6C(=O)CC(*)C6=O)CC5)CC4)ccc3nc2-1

Tests used:
[1] = Stability of conjugates in citrated plasma at 37° C. (half life time, HPLC fluorescence); type: in vitro ADME, human; settings: human, plasma, read-out: Human Plasma Half life time
Experimental: (§1) The stability of the conjugates was tested in citrated plasma (10% (v/v) sodium citrate buffer, 0.106M) from different species (see Table 1 below). The conjugates at 2.55 μM were incubated at 37° C. in plasma. Samples were analysed using the HPLC fluorescence method described below (see chromatographic equipment and conditions) following TFA/acetonitrile extraction and the amount of free camptothecin, analogs or derivatives thereof (e.g. SN38) released by the conjugates was measured.
(§2) Chromatographic equipment and conditions: 150 μL of each sample were placed in 1.5 mL micro-centrifuge tubes. 450 μL of 5% (v/v) TFA in H2O was added to each tube and the mixture was vortexed for 5 seconds. Samples were then centrifuged at 16000 g, 3 minutes at +4° C. 100 μL of supernatant were placed in 1.5 mL micro-centrifuge tubes. Methanol (100 μL) was then immediately added and vortexed for 5 seconds. Samples were then centrifuged at 16000 g, 3 minutes at room temperature. 150 μL of supernatant were recovered for HPLC analysis. Conjugates, metabolites and camptothecin derivative (i.e. SN38) were separated by high-performance liquid chromatography (HPLC; Agilent 1100 series equipped with a fluorescence detector) using a 4.6×100 mm ([…] particle size) Luna C18(2) column (Phenomenex ref. 00D-4251-E0, Le Pecq, France). The aqueous component of the mobile phase (A) was 0.1% (v/v) TFA in water. The organic modifier (B) was acetonitrile containing 0.1% (v/v) TFA. For the conjugate and its metabolites an elution gradient increasing linearly the proportion of B from 15 to 37% in 2 min, from 37 to 47% in 6 min, followed by 2 min at 90% was applied with a constant flow rate of 1.2 mL/min. The proportion of B was then returned to the initial condition for 3.0 min.
(§3) The half life time of conjugate corresponds to the time necessary to have 50% by mole of free camptothecin, analogs or derivatives thereof released by the conjugates of the invention. In human plasma, the half life time of conjugate DPV1047-linker #1-SN38 (less than 5 mins) was shorter than that of conjugate DPV1047-linker #2-SN38 (6-7 mins), which, in turn, was shorter than that of conjugate DPV1047-linker #3-SN38 (12 mins).
(§4) As in Example II, the stability of these conjugates was tested in either human or dog plasma. Following incubation at 37° C., samples were analyzed after a TFA acetonitrile extraction by the HPLC fluorescence method described in Example II. The in vitro cytotoxicity (IC50) of these compounds was also evaluated.

[2] = as above; type: in vitro ADME; settings: dog, read-out: Dog Plasma Half life time
Experimental: as §1, §2, §3, §4

[3] = test system: NCI-H460 human epithelial lung carcinoma cells; assay: In vitro cytotoxicity (WST-1 cell viability); type: cell-based
Experimental: (§5) Cytotoxic evaluation was performed by seeded cells for 24 h prior to the addition of the therapeutic compound. Cells were incubated for 48 h (37° C.) with different dilutions of the therapeutic compound. Cell viability was then assessed using the WST-1 assay (Roche). The results are expressed as mean cytotoxic concentrations (IC50 value or molar concentration that inhibits 50% of cell viability) that were estimated from sigmoid regression, using Graph Pad Prism 3.02 software.
NCI-H460 (ATCC#: HTB-177): human epithelial lung carcinoma cells. Cells were cultured in RPMI 1640+glutamax and 10% of fetal bovine serum. Cells were plated at a density of 10,000 cells/well in 96-well plates.

[4] = test system: HCT 116 human epithelial colon carcinoma cells; assay: cells; type: cell-based
Experimental: as §5
HCT 116 (ATCC #: CCL-247): human epithelial colon carcinoma cells. Cells were cultured in Mc Coy's 5a medium+1.5 mM L-glutamine and 10% fetal bovine serum. Cells were plated at a density of 8000 cells/well in 96-well plates.

HT-29 tumors = assay: Combination of DPV1047-BCH-SN38 with 5-FU or bevacizumab in the HT-29 tumor model; settings: 5-FU 40 mg/kg i.v. or bevacizumab 2 mg/kg i.p.
Experimental: Mice were implanted with HT-29 tumors and treated by intraperitoneal administration (bevacizumab) or bolus intravenous injection (5-FU or DPV1047-BCH-SN38) at 10 μL/g. […] The T/C ratio was calculated following treatment with either bevacizumab, 5-FU or DPV1047-BCH-SN38. These T/C ratios were used to evaluate the expected T/C for combined treatment with bevacizumab and DPV1047-BCH-SN38, or 5-FU and DPV1047-BCH-SN38 (T/C of DPV1047-BCH-SN38×T/C of bevacizumab or 5-FU). […] The combination index of the two molecules was calculated by dividing the expected T/C by the observed T/C.

[5] = Table 14, 10-Hydroxycamptothecin conjugates
[6] = line of DPV1047-BCH-SN38 12.5 μmol/kg
[7] = line of DPV1047-BCH-SN38 25 μmol/kg
[8] = Table 12, CPP-linker #5-SN38 conjugates incl. D conformation

Compound: CC[C@H](C)[C@H](NC(=O)[C@H](CCCCN)NC(=O)[C@@H](NC(=O)[C@H](CCC(N)=O)NC(=O)[C@H](CCCNC(=N)N)NC(=O)[C@@H](N)CSC1CC(=O)N(CC2CCC(C(=O)NC[C@H]3CC[C@H](C(=O)Oc4ccc5nc6c(cc5c4)Cn4c-6cc5c(c4=O)COC(=O)[C@]5(O)CC)CC3)CC2)C1=O)[C@@H](C)CC)C(=O)N[C@@H](Cc1c[nH]c2ccccc12)C(=O)N[C@@H](Cc1ccccc1)C(=O)N[C@@H](CCC(N)=O)C(=O)N[C@@H](CC(N)=O)C(=O)N[C@@H](CCCNC(=N)N)C(=O)N[C@@H](CCCNC(=N)N)C(=O)N[C@@H](CCSC)C(=O)N[C@@H](CCCCN)C(=O)N[C@@H](Cc1c[nH]c2ccccc12)C(=O)N[C@@H](CCCCN)C(=O)N[C@@H](CCCCN)C(=O)O (some centres unmarked)
- half-life [1, 5]: 0.533 h
- half-life [2, 5]: 1.83 h
- IC50 ([3]; 48 h): 161 nM
- IC50 ([4]; 48 h): 194 nM

Compound: O=c1[nH]cc(F)c(=O)[nH]1 [5-FU, 5-fluorouracil, reference compound]
- Single treatment Reference drug T/C % (HT-29 tumors; [6]): 90%
- Single treatment Reference drug T/C % (HT-29 tumors; [7]): 94%

Compound: CC[C@@]1(O)C(=O)OCc2c1cc1n(c2=O)Cc2cc3cc(O)ccc3nc2-1 [10-Hydroxycamptothecin, reference compound]
- IC50 ([3]; Homo sapiens, NCI-H460, 48 h, read-out: Drug concentration that inhibits 50% of cell viability (IC50), NCI-H460): 21 nM
- IC50 ([4]; Homo sapiens, HCT-116, 48 h, read-out: Drug concentration that inhibits 50% of cell viability (IC50), HCT 116): 64 nM

Compound: CCc1c2c(nc3ccc(OC(=O)[C@H]4CC[C@H](CNC(=O)C5CCC(CN6C(=O)CC(SCC(N)C(=O)N[C@@H](C(=O)N[C@H](CCCCN)C(=O)N[C@H](CCCNC(=N)N)C(=O)NCC(=O)N[C@H](CC(C)C)C(=O)N[C@H](CCCCN)C(=O)N[C@H](CC(C)C)C(=O)N[C@H](CCCNC(=N)N)C(=O)N[C@H](Cc7c[nH]cn7)C(=O)N[C@@H](C(=O)N[C@H](CCCNC(=N)N)C(=O)N7CCC[C@@H]7C(=O)N[C@H](CCCNC(=N)N)C(=O)N[C@@H](C(=O)N[C@@H](C(=O)N[C@H](CCCNC(=N)N)C(=O)N[C@H](CCSC)C(=O)N[C@H](CC(=O)O)C(=O)N[C@@H](C(=O)O)C(C)C)[C@H](C)O)C(C)C)C(C)C)C(C)C)C6=O)CC5)CC4)cc13)-c1cc3c(c(=O)n1C2)COC(=O)[C@]3(O)CC (some centres unmarked) [DPV1047(D)-linker #5-SN38]
- half-life [1, 8]: 1.83 h
- half-life [2, 8]: 2.75 h
- IC50 ([4]; 48 h): 23 nM

Compound: CC[C@@]1(O)C(=O)OCc2c1cc1n(c2=O)Cc2cc3cc(OC(=O)[C@H]4CC[C@H](CNC(=O)C5CCC(CN6C(=O)CC(SC[C@H](N)C(=O)N[C@H](C(=O)N[C@@H](CCCCN)C(=O)N[C@@H](CCCNC(=N)N)C(=O)NCC(=O)N[C@@H](CC(C)C)C(=O)N[C@@H](CCCCN)C(=O)N[C@@H](CC(C)C)C(=O)N[C@@H](CCCNC(=N)N)C(=O)N[C@@H](Cc7c[nH]cn7)C(=O)N[C@H](C(=O)N[C@@H](CCCNC(=N)N)C(=O)N7CCC[C@H]7C(=O)N[C@@H](CCCNC(=N)N)C(=O)N[C@H](C(=O)N[C@H](C(=O)N[C@@H](CCCNC(=N)N)C(=O)N[C@@H](CCSC)C(=O)N[C@@H](CC(=O)O)C(=O)N[C@H](C(=O)O)C(C)C)[C@@H](C)O)C(C)C)C(C)C)C(C)C)C6=O)CC5)CC4)ccc3nc2-1 (some centres unmarked) [DPV1047-linker #5-10 Hydroxycamptothecin] (H-C(X4)VKRGLKLRHVRPRVTRMDV-OH; N-terminus and C-terminus assumed)
- half-life [1, 5]: 3.57 h
- half-life [2, 5]: 3 h
- IC50 ([3]; 48 h): 112 nM
- IC50 ([4]; 48 h): 185 nM

Compound: CCc1c2c(nc3ccc(OC(=O)[C@H]4CC[C@H](CNC(=O)C5CCC(CN6C(=O)CC(SC[C@H](N)C(=O)N[C@@H](CCCNC(=N)N)C(=O)N[C@@H](CCC(N)=O)C(=O)N[C@H](C(=O)N[C@@H](CCCCN)C(=O)N[C@H](C(=O)N[C@@H](Cc7c[nH]c8ccccc78)C(=O)N[C@@H](Cc7ccccc7)C(=O)N[C@@H](CCC(N)=O)C(=O)N[C@@H](CC(N)=O)C(=O)N[C@@H](CCCNC(=N)N)C(=O)N[C@@H](CCCNC(=N)N)C(=O)N[C@@H](CCSC)C(=O)N[C@@H](CCCCN)C(=O)N[C@@H](Cc7c[nH]c8ccccc78)C(=O)N[C@@H](CCCCN)C(=O)N[C@@H](CCCCN)C(=O)O)[C@@H](C)CC)[C@@H](C)CC)C6=O)CC5)CC4)cc13)-c1cc3c(c(=O)n1C2)COC(=O)[C@]3(O)CC (some centres unmarked) [Penetratin-linker #5-SN38]
- half-life ([1]; Table 10, SN38 conjugates): 1 h
- half-life ([2]; Table 10, SN38 conjugates): 2.5 h
- IC50 ([3]; 24 h): 53 nM
- IC50 ([4]; 24 h): 57 nM

Compound: Tat-linker #7-10 Hydroxycamptothecin: Tat48-60 peptide coupled via linker #7 to 10-Hydroxycamptothecin (GRKKRRQRRRAHQ; also: coupled via linker #7 to 10-hydroxycamptothecin, site not given here; UniProt P04608 48-60, looked up, fragment)
- IC50 ([3]; Table 15, 48 h continuous exposure, mean of three independent experiments, read-out: Drug concentration that inhibits 50% of cell viability (IC50), NCI-H460): 127 nM
- IC50 ([4]; Table 15, 48 h continuous exposure, mean of three independent experiments, read-out: Drug concentration that inhibits 50% of cell viability (IC50), HCT 116): 158 nM

Compound: bevacizumab: bevacizumab (Avastin®, Roche)
- Single treatment Reference drug T/C % (HT-29 tumors; [6]): 67%
- Single treatment Reference drug T/C % (HT-29 tumors; [7]): 67%
